Holding throughout (assay): MIC and MBC determination
Type in all cases: cell-based

For experiment [1], the system named is S. aureus ATCC 29213. To be noted: S. aureus.
Experiment [2] concerns P. aeruginosa ATCC 27853. To be noted: Pseudomonas aeruginosa, ATCC27853, P. aeruginosa.
In experiment [3] the test system is E. faecalis ATCC 29212. To be noted: Enterococcus faecalis, ATCC29212, E. faecalis.

One compound from article PMC7915026, “Sulfaguanidine Hybrid with Some New Pyridine-2-One Derivatives: Design, Synthesis, and Antimicrobial Activity against Multidrug-Resistant Bacteria as Dual DNA Gyrase and DHFR Inhibitors” (Antibiotics, 2021) can be followed below.

Values after ≈ are worked out from the molar mass of the structure shown. Like-named read-outs stand apart in the source and are kept apart here.

On to `COc1ccc(/C=C(\C#N)C(=O)Nc2ccc(S(=O)(=O)NC(=N)N)cc2)cc1O` [Compound 2d, N-(4-(N-Carbamimidoylsulfamoyl)phenyl)-2-cyano-3-(3-hydroxy-4-methoxyphenyl) acryl-amide], for which the MBC in experiment [1] worked out at 13.40 ± 0.54 µM (≈ 5.57 µg/mL); in experiment [1] (Staphylococcus aureus, ATCC29213, read-out: MBC), 13.4 µM (≈ 5.57 µg/mL); in experiment [2] (read-out: MBC) it was 25.5 ± 0.65 µM (≈ 10.6 µg/mL); in experiment [3] (read-out: MBC) it was 15.9 ± 0.58 µM (≈ 6.63 µg/mL). Moreover, the minimum inhibitory concentration (MIC) in experiment [1] is 13.40 ± 0.98 µM (≈ 5.57 µg/mL); in experiment [1] (Staphylococcus aureus, ATCC29213, read-out: MIC) it was 13.4 µM (≈ 5.57 µg/mL); in experiment [2] (read-out: MIC), 13.4 ± 0.25 µM (≈ 5.57 µg/mL); in experiment [3] (read-out: MIC), 9.38 ± 0.24 µM (≈ 3.9 µg/mL).
